Laboratory results taken from article PMC4769951 (Bioorganic & medicinal chemistry, 2016).

Legend:
[1] = Plasma stability, rat plasma; type: in vitro ADME; conditions: female, Sprague-Dawley, pooled plasma
[2] = tested on: Caco-2 cells; conditions: cited from earlier work
[3] = Plasma stability, mouse plasma; type: in vitro ADME; conditions: female, CD-1, mouse, pooled plasma
[4] = in vivo, cited from earlier work
[5] = Plasma stability, human plasma; type: in vitro ADME; conditions: female, pooled plasma
[6] = Aqueous stability in simulated gastric fluid; type: physicochemical; conditions: 37 °C

Nc1ncnc2c1ncn2[C@@H]1O[C@H](CNS(=O)(=O)NC(=O)c2ccccc2O)[C@@H](O)[C@H]1F [Compound 2]
remaining at 6 h, 200 µM [1]: 100% | Caco-2 permeability relative to 1 [2]: 3.5 fold | Efflux ratio [2]: 0.3 | Papp AP-BL [2]: 4.2e-06 cm/s | Papp BL-AP [2]: 1.3e-06 cm/s | remaining at 6 h, 200 µM [3]: 100% | Oral exposure relative to 1 ([4]; po): 3 fold | Clearance relative to 1 [4]: 3 fold | remaining at 6 h, 200 µM [5]: 100%

CC(=O)O[C@H]1[C@@H](F)[C@H](n2cnc3c(N)ncnc32)O[C@@H]1CNS(=O)(=O)NC(=O)c1ccccc1O.CCN(CC)CC [Compound 3, 9-[3-O-(Acetyl)-2,5-dideoxy-2-fluoro-5-{N-(N-2-hydroxybenzoyl)sulfamoyl}amino-β-D-ribofuranosyl]adenine Triethylammonium Salt]
% hydrolyzed to parent drug 2 ([6]; pH 7.4, 2 h): 8%

CCCCCCCCCCCC(=O)O[C@H]1[C@@H](F)[C@H](n2cnc3c(N)ncnc32)O[C@@H]1CNS(=O)(=O)NC(=O)c1ccccc1O.CCN(CC)CC [Compound 8, 9-[2,5-Dideoxy-3-O-(dodecanoyl)-2-fluoro-5-{N-(N-2-hydroxybenzoyl)sulfamoyl}amino-β-D-ribofuranosyl]adenine Triethylammonium Salt]
Chemical hydrolysis to release the parent drug 2 ([6]; pH 1.2, 2 h): not observed
